Assay results published in US5616563A, “Glutathione N-hydroxycarbamoyl thioesters and method of inhibiting neoplastic growth” (University of Maryland Baltimore Campus, priority 1994, dated 1997).

Tested on: human erythrocytes
Assay: Erythrocyte uptake of 35S-labeled compounds
Experimental: In order to test the ability of human erythrocytes to take up the above enediol and its ethyl ester derivative, suspensions of washed human erythrocytes were separately incubated with [^35 S] GSH, [^35 S]S-(N-hydroxy N-methylcarbamoyl) glutathione, and with [^35 S] S-(N-hydroxy N-methylcarbamoyl) glutathione[glycyl]-O-ethyl ester. The tests were conducted with 50:50 (v:v) erythrocytes in PBS buffer at 37° C. in the presence of 8.5 mM extracellular [^35 S] labeled compounds.

[1] = 0 h, 8.5 mM extracellular, 37° C.

Row | Extracellular Total 35S species (0 h) | Intracellular Total 35S species [1] | Extracellular Total 35S species (6 h) | Intracellular Total 35S species (6 h) | Extracellular Total 35S species (12 h) | Intracellular Total 35S species (12 h) | Extracellular Total 35S species (24 h) | Intracellular Total 35S species (24 h) | Extracellular Total 35S species (36 h) | Intracellular Total 35S species (36 h) | Extracellular Total 35S species (48 h) | Intracellular Total 35S species (48 h) | SMILES | Extracellular [35S] S-(N-hydroxy N-methylcarbamoyl) glutathione (0 h) | Extracellular [35S] S-(N-hydroxy N-methylcarbamoyl) glutathione (6 h) | Extracellular [35S] S-(N-hydroxy N-methylcarbamoyl) glutathione (12 h) | Intracellular [35S] S-(N-hydroxy N-methylcarbamoyl) glutathione (12 h) | Extracellular [35S] S-(N-hydroxy N-methylcarbamoyl) glutathione (24 h) | Intracellular [35S] S-(N-hydroxy N-methylcarbamoyl) glutathione (24 h) | Extracellular [35S] S-(N-hydroxy N-methylcarbamoyl) glutathione (36 h) | Intracellular [35S] S-(N-hydroxy N-methylcarbamoyl) glutathione (36 h) | further results
1 | 8.54 mM | ~ 0.01 mM | 8.60 mM | 0.05 mM | 8.62 mM | 0.07 mM | 8.49 mM | 0.20 mM | 8.09 mM | 0.45 mM | 7.90 mM | 0.67 mM | CCOC(=O)CNC(=O)[C@H](CSC(=O)N(C)O)NC(=O)CC[C@H](N)C(=O)O [[^35 S] .box-solid., [^35 S] S-(N-Hydroxy N-Methyl Carbamoyl) Glutathione [Glycyl]-O-Ethyl Ester] | 1.27 mM | 1.27 mM | 1.42 mM | 0.02 mM | 1.65 mM | 0.05 mM | 1.83 mM | 0.14 mM | diffusion rate into erythrocytes relative to [35S] 2: ~ 2 fold; Extracellular [35S] S-(N-hydroxy N-methylcarbamoyl) glutathione glycyl-O-ethyl ester (0 h): 7.22 mM; Extracellular [35S] S-(N-hydroxy N-methylcarbamoyl) glutathione (0 h, listed as [^35 S] 2(Et)): 1.3 mM; Extracellular [35S] S-(N-hydroxy N-methylcarbamoyl) glutathione glycyl-O-ethyl ester (6 h): 7.17 mM; Intracellular [35S] S-(N-hydroxy N-methylcarbamoyl) glutathione (6 h): ~ 0.01 mM; Intracellular [35S] S-(N-hydroxy N-methylcarbamoyl) glutathione glycyl-O-ethyl ester (6 h): ~ 0.01 mM; Extracellular [35S] S-(N-hydroxy N-methylcarbamoyl) glutathione glycyl-O-ethyl ester (12 h): 7.02 mM; Intracellular [35S] S-(N-hydroxy N-methylcarbamoyl) glutathione glycyl-O-ethyl ester (12 h): 0.03 mM; Extracellular [35S] S-(N-hydroxy N-methylcarbamoyl) glutathione glycyl-O-ethyl ester (24 h): 6.62 mM; Intracellular [35S] S-(N-hydroxy N-methylcarbamoyl) glutathione glycyl-O-ethyl ester (24 h): 0.12 mM; Extracellular [35S] S-(N-hydroxy N-methylcarbamoyl) glutathione glycyl-O-ethyl ester (36 h): 6.01 mM; Intracellular [35S] S-(N-hydroxy N-methylcarbamoyl) glutathione glycyl-O-ethyl ester (36 h): 0.28 mM; Extracellular [35S] S-(N-hydroxy N-methylcarbamoyl) glutathione (48 h): 1.89 mM; Extracellular [35S] S-(N-hydroxy N-methylcarbamoyl) glutathione glycyl-O-ethyl ester (48 h): 5.70 mM; Intracellular [35S] S-(N-hydroxy N-methylcarbamoyl) glutathione (48 h): 0.24 mM; Intracellular [35S] S-(N-hydroxy N-methylcarbamoyl) glutathione glycyl-O-ethyl ester (48 h): 0.39 mM; final intracellular [35S] 2 relative to that expected from import of contaminating [35S] 2 (48 h): about 3 fold; Extracellular [35S] S-(N-hydroxy N-methylcarbamoyl) glutathione (48 h, listed as [^35 S] 2(Et)): 1.9 mM
2 | 8.48 mM | ~ 0 mM | 8.56 mM | 0.04 mM | 8.61 mM | 0.05 mM | 8.38 mM | 0.13 mM | 8.37 mM | 0.28 mM | 8.23 mM | 0.48 mM | N[C@@H](CCC(=O)N[C@@H](C[35SH])C(=O)NCC(=O)O)C(=O)O [[^35 S] GSH, reference compound] |  |  |  |  |  |  |  |  | Extracellular [35S] GSH (0 h): 7.95 mM; Extracellular [35S] GSSG (0 h): 0.43 mM; Extracellular [35S] GSH (6 h): 7.90 mM; Extracellular [35S] GSSG (6 h): 0.53 mM; Intracellular [35S] GSH (6 h): 0.02 mM; Intracellular [35S] GSSG (6 h): 0.02 mM; Extracellular [35S] GSH (48 h): 5.31 mM; Extracellular [35S] GSSG (48 h): 2.49 mM; Intracellular [35S] GSH (48 h): 0.10 mM; Intracellular [35S] GSSG (48 h): 0.27 mM

Row | SMILES | Extracellular Total 35S species (0 h) | Intracellular Total 35S species [1] | Extracellular Total 35S species (6 h) | Intracellular Total 35S species (6 h) | Extracellular Total 35S species (12 h) | Intracellular Total 35S species (12 h) | Extracellular Total 35S species (24 h) | Intracellular Total 35S species (24 h) | Extracellular Total 35S species (36 h) | Intracellular Total 35S species (36 h) | Extracellular Total 35S species (48 h) | Intracellular Total 35S species (48 h) | Extracellular [35S] S-(N-hydroxy N-methylcarbamoyl) glutathione (0 h) | Extracellular [35S] S-(N-hydroxy N-methylcarbamoyl) glutathione (6 h) | Extracellular [35S] S-(N-hydroxy N-methylcarbamoyl) glutathione (12 h) | Intracellular [35S] S-(N-hydroxy N-methylcarbamoyl) glutathione (12 h) | Extracellular [35S] S-(N-hydroxy N-methylcarbamoyl) glutathione (24 h) | Intracellular [35S] S-(N-hydroxy N-methylcarbamoyl) glutathione (24 h) | Extracellular [35S] S-(N-hydroxy N-methylcarbamoyl) glutathione (36 h) | Intracellular [35S] S-(N-hydroxy N-methylcarbamoyl) glutathione (36 h) | further results
3 | CN(O)C(=O)SC[C@H](NC(=O)CC[C@H](N)C(=O)O)C(=O)NCC(=O)O [[^35 S] .circle-solid., [^35 S] S-(N-Hydroxy N-Methylcarbamoyl) Glutathione] | 8.44 mM | ~ 0 mM | 8.57 mM | 0.02 mM | 8.67 mM | 0.03 mM | 8.24 mM | 0.12 mM | 8.24 mM | 0.31 mM | 8.50 mM | 0.44 mM | 8.20 mM | 8.32 mM | 8.39 mM | ~ 0.01 mM | 7.96 mM | 0.08 mM | 7.96 mM | 0.26 mM | Extracellular [35S] GSH + [35S] GSSG (0 h): ~ 0.01 mM; Extracellular [35S] GSH + [35S] GSSG (6 h): 0.15 mM; Extracellular [35S] GSH + [35S] GSSG (12 h): 0.14 mM; Intracellular [35S] GSH + [35S] GSSG (12 h): ~ 0.01 mM; Extracellular [35S] GSH + [35S] GSSG (24 h): 0.14 mM; Intracellular [35S] GSH + [35S] GSSG (24 h): 0.03 mM; Extracellular [35S] GSH + [35S] GSSG (36 h): 0.13 mM; Intracellular [35S] GSH + [35S] GSSG (36 h): 0.04 mM; Extracellular [35S] GSH + [35S] GSSG (48 h): 0.14 mM; Extracellular [35S] S-(N-hydroxy N-methylcarbamoyl) glutathione (48 h): 8.19 mM; Intracellular [35S] GSH + [35S] GSSG (48 h): 0.04 mM; Intracellular [35S] S-(N-hydroxy N-methylcarbamoyl) glutathione (48 h): 0.37 mM
